# Laboratory results published in PMC9130746, “In Vitro Activity of Peptide Antibiotics in Combination With Other Antimicrobials on Extensively Drug-Resistant Acinetobacter baumannii in the Planktonic and Biofilm Cell” (Frontiers in Pharmacology, 2022).
# Where two headings read alike, the source gives them in different places. Bridge positions count the residues as written; N and C are the ends. Square brackets hold non-standard residues; d marks the D form. Peptide text beside a SMILES is read from it. * marks the point of attachment. Ileψ(thiazoline)Cys = CC[C@H](C)[C@H](N)C1=N[C@H](C(=O)*)CS1; dOrn = NCCC[C@@H](N)C(=O)O
# Legend:
# [1] = test system: extensively drug-resistant A. baumannii clinical isolates (planktonic cell); assay: microbe, parasite or virus in culture; format: cell-based, Acinetobacter baumannii
# Excerpt: (§1) Nine XDRAB strains were isolated from clinical specimens such as the septum, urine, or respiratory lavage fluid of patients from the respiratory intensive care unit, intensive care unit, the cardiothoracic surgery department, and the neurology department at the First Affiliated Hospital of Chengdu Medical College during the period from 2018 to 2020 (Chengdu, Sichuan, China). In addition, A. baumannii ATCC 19606, Staphylococcus aureus ATCC 29213, and Escherichia coli ATCC 25922 were used as quality control strains in antimicrobial susceptibility testing (AST) and obtained from the American Type Culture Collection (ATCC, Manassas, VA, United States).
# The minimum inhibitory concentrations (MICs) were determined by the broth microdilution method for the antibacterial agents and peptide antibiotics for A. baumannii based on the guidelines provided by the Clinical and Laboratory Standards Institute (CLSI) ([Humphries et al., 2021]). Briefly, bacterial cells were inoculated in Luria–Bertani agar medium at 37°C for 16–20 h, and then resuspended in saline (0.9% sodium chloride) to adjust the bacterial content to reach the 0.5 McFarland turbidity standard, followed by a 20-fold dilution. Antimicrobial solutions were prepared according to the CLSI ([Humphries et al., 2021]). Finally, 180 μl CAMHB, 10 µl corresponding antimicrobials, and 10 µl bacterial resuspension were added into 96-well plate (NEST TC, 701001, www.cell-nest.com). The value of OD600 was measured after incubating at 37°C for 16–20 h.
# [2] = test system: extensively drug-resistant A. baumannii clinical isolates (biofilm cell); format: cell-based, Acinetobacter baumannii; conditions: extensively drug-resistant clinical isolates (biofilm cell, 24 h)
# Excerpt: as §1
# The minimum biofilm inhibitory concentrations (MBICs) were detected using a previous study protocol ([Kart et al., 2021]) for the antibacterial agents and peptide antibiotics for A. baumannii in the biofilm cell. First, bacterial cells were inoculated in Luria–Bertani agar medium at 37°C for 16–20 h. Next, the bacterial monoclones were resuspended in saline (0.9% sodium chloride) to adjust the bacterial content to reach the 0.5 McFarland turbidity standard. Then, 190 µl TSB and 10 µl bacterial resuspension were mixed in a 96-well plate. After incubating at 37°C for 24 h, the medium was aspirated, and 200 µl PBS was added to wash three times. Finally, 190 μl MH broth medium and 10 µl corresponding antibiotics were added into 96-well plate (NEST TC, 701001, www.cell-nest.com). The optical density was measured at OD600 after incubating for 16–20 h at 37°C.
# [3] = Acinetobacter baumannii, isolate AB1, planktonic, broth microdilution, CAMHB, 37°C 16–20 h, OD600, read-out: MIC
# [4] = Acinetobacter baumannii, isolate AB2, planktonic, broth microdilution, CAMHB, 37°C 16–20 h, OD600, read-out: MIC
# [5] = Acinetobacter baumannii, isolate AB3, planktonic, broth microdilution, CAMHB, 37°C 16–20 h, OD600, read-out: MIC
# [6] = Acinetobacter baumannii, isolate AB4, planktonic, broth microdilution, CAMHB, 37°C 16–20 h, OD600, read-out: MIC
# [7] = Acinetobacter baumannii, isolate AB5, planktonic, broth microdilution, CAMHB, 37°C 16–20 h, OD600, read-out: MIC
# [8] = Acinetobacter baumannii, isolate AB6, planktonic, broth microdilution, CAMHB, 37°C 16–20 h, OD600, read-out: MIC
# [9] = Acinetobacter baumannii, isolate AB7, planktonic, broth microdilution, CAMHB, 37°C 16–20 h, OD600, read-out: MIC
# [10] = Acinetobacter baumannii, isolate AB8, planktonic, broth microdilution, CAMHB, 37°C 16–20 h, OD600, read-out: MIC
# [11] = Acinetobacter baumannii, isolate AB9, planktonic, broth microdilution, CAMHB, 37°C 16–20 h, OD600, read-out: MIC
# [12] = isolate AB3, planktonic, broth microdilution, CAMHB, 37°C 16–20 h, OD600
# [13] = isolate AB4, planktonic, broth microdilution, CAMHB, 37°C 16–20 h, OD600
# [14] = isolate AB5, planktonic, broth microdilution, CAMHB, 37°C 16–20 h, OD600
# [15] = isolate AB6, planktonic, broth microdilution, CAMHB, 37°C 16–20 h, OD600
# [16] = isolate AB8, planktonic, broth microdilution, CAMHB, 37°C 16–20 h, OD600
# [17] = isolate AB1, planktonic, broth microdilution, CAMHB, 37°C 16–20 h, OD600
# [18] = isolate AB2, planktonic, broth microdilution, CAMHB, 37°C 16–20 h, OD600
# [19] = isolate AB7, planktonic, broth microdilution, CAMHB, 37°C 16–20 h, OD600
"MIC [1, 3] [µg/mL]","MIC [1, 4] [µg/mL]","MIC [1, 5] [µg/mL]","MIC [1, 6] [µg/mL]","MIC [1, 7] [µg/mL]","MIC [1, 8] [µg/mL]","MIC [1, 9] [µg/mL]","MIC [1, 10] [µg/mL]","MIC [1, 11] [µg/mL]",SMILES,"MIC [1, 12] [µg/mL]","MIC [1, 13] [µg/mL]","MIC [1, 14] [µg/mL]","MIC [1, 15] [µg/mL]","MIC [1, 16] [µg/mL]",MIC ([1]; Acinetobacter baumannii) [µg/mL],"MIC [1, 17] [µg/mL]","MIC [1, 18] [µg/mL]","MIC [1, 19] [µg/mL]",also measured
> 1020,> 1020,> 1020,> 1020,> 1020,> 1020,> 1020,> 1020,> 1020,"NCC[C@H](O)C(=O)N[C@@H]1C[C@H](N)[C@@H](O[C@H]2O[C@H](CN)[C@@H](O)[C@H](O)[C@H]2O)[C@H](O)[C@H]1O[C@H]1O[C@H](CO)[C@@H](O)[C@H](N)[C@H]1O [Amikacin, amikacin]",–,–,–,–,–,–,–,–,–,–
–,–,–,–,–,–,–,–,–,"CC[C@H](C)[C@H](N)C1=N[C@H](C(=O)N[C@@H](CC(C)C)C(=O)N[C@H](CCC(=O)O)C(=O)N[C@H](C(=O)N[C@H]2CCCCNC(=O)[C@H](CC(N)=O)NC(=O)[C@@H](CC(=O)O)NC(=O)[C@H](Cc3cnc[nH]3)NC(=O)[C@@H](Cc3ccccc3)NC(=O)[C@H]([C@@H](C)CC)NC(=O)[C@@H](CCCN)NC2=O)[C@@H](C)CC)CS1 [Bacitracin, bacitracin] ({Ileψ(thiazoline)Cys}-L[dE]IK[dOrn]I[dF]H[dD]N; lactam 4-C (inferred); N-terminus assumed)",128,128,128,128,128,–,–,–,–,"MIC [1]: 64 µg/mL; MIC ([1]; isolate AB9, planktonic, broth microdilution, CAMHB, 37°C 16–20 h, OD600): 128 µg/mL; MBIC [2]: 256 µg/mL"
–,–,–,–,–,–,–,–,–,"CO/N=C(\C(=O)N[C@@H]1C(=O)N2C(C(=O)O)=C(COC(C)=O)CS[C@H]12)c1csc(N)n1 [Cefotaxime, cefotaxime]",256,256,256,256,256,256,256,256,256,–
–,–,–,–,–,–,–,–,–,"CC(C)(O/N=C(\C(=O)N[C@@H]1C(=O)N2C(C(=O)[O-])=C(C[n+]3ccccc3)CS[C@H]12)c1csc(N)n1)C(=O)O [Ceftazidime, ceftazidime]",256,256,256,256,256,256,256,256,256,–
32,32,32,32,32,32,32,32,32,"O=C(N[C@H](CO)[C@H](O)c1ccc([N+](=O)[O-])cc1)C(Cl)Cl [Chloramphenicol, chloramphenicol]",–,–,–,–,–,–,–,–,–,–
–,–,–,–,–,–,–,–,–,"CNC(C)C1CCC(N)C(OC2C(N)CC(N)C(OC3OCC(C)(O)C(NC)C3O)C2O)O1 (centres unmarked) [Gentamicin, gentamicin]",>1024,>1024,>1024,>1024,>1024,> 1020,>1024,>1024,>1024,–
